Source: ChEMBL document CHEMBL3045547, “Synthesis, characterization and antimicrobial screening of hybrid molecules containing benzimidazole-pyrazole and pyridine nucleus” (2012)
Values after ≈ are worked out from the molar mass of the structure shown.

How the values were obtained:
Assay type in all cases: functional
Pseudomonas aeruginosa = experiment: Antimicrobial activity against Pseudomonas aeruginosa MTCC 1688 after 24 to 48 hr by serial broth dilution method
Candida albicans = experiment: Antimicrobial activity against Candida albicans MTCC 227 after 72 hr by serial broth dilution method; conditions: MTCC 227, 72 h
Aspergillus clavatus = experiment: Antimicrobial activity against Aspergillus clavatus MTCC 1323 after 72 hr by serial broth dilution method; conditions: MTCC 1323, 72 h
Staphylococcus aureus = experiment: Antimicrobial activity against Staphylococcus aureus MTCC 96 after 24 to 48 hr by serial broth dilution method
Aspergillus niger = experiment: Antimicrobial activity against Aspergillus niger MTCC 282 serial after 72 hr by broth dilution method; conditions: MTCC 282, 72 h
Escherichia coli = experiment: Antimicrobial activity against Escherichia coli MTCC 443 after 24 to 48 hr by serial broth dilution method
Streptococcus pyogenes = experiment: Antimicrobial activity against Streptococcus pyogenes MTCC 442 after 24 to 48 hr by serial broth dilution method

MIC (Pseudomonas aeruginosa) [µg/mL] | MIC (Candida albicans) [µg/mL] | MIC (Aspergillus clavatus) [µg/mL] | MIC (Staphylococcus aureus) [µg/mL] | MIC (Aspergillus niger) [µg/mL] | MIC (Escherichia coli) [µg/mL] | MIC (Streptococcus pyogenes) [µg/mL] | SMILES
50 (≈ 131 µM) | 1000 (≈ 2620 µM) | 1000 (≈ 2620 µM) | 100 (≈ 262 µM) | 1000 (≈ 2620 µM) | 25 (≈ 65.5 µM) | 250 (≈ 655 µM) | Cc1ccc(C2CC(c3nc4ccccc4[nH]3)=NN2C(=O)c2ccncc2)cc1 (stereo not given)
50 (≈ 126 µM) | 500 (≈ 1260 µM) | 500 (≈ 1260 µM) | 125 (≈ 315 µM) | 200 (≈ 503 µM) | 100 (≈ 252 µM) | 200 (≈ 503 µM) | COc1ccc(C2CC(c3nc4ccccc4[nH]3)=NN2C(=O)c2ccncc2)cc1 (stereo not given)
500 (≈ 1240 µM) | 1000 (≈ 2490 µM) | 1000 (≈ 2490 µM) | 250 (≈ 622 µM) | 1000 (≈ 2490 µM) | 500 (≈ 1240 µM) | 250 (≈ 622 µM) | O=C(c1ccncc1)N1N=C(c2nc3ccccc3[nH]2)CC1c1ccc(Cl)cc1 (stereo not given)
250 (≈ 560 µM) | 1000 (≈ 2240 µM) | 1000 (≈ 2240 µM) | 250 (≈ 560 µM) | 1000 (≈ 2240 µM) | 250 (≈ 560 µM) | 250 (≈ 560 µM) | O=C(c1ccncc1)N1N=C(c2nc3ccccc3[nH]2)CC1c1ccc(Br)cc1 (stereo not given)
100 (≈ 259 µM) | 500 (≈ 1300 µM) | 500 (≈ 1300 µM) | 500 (≈ 1300 µM) | 200 (≈ 519 µM) | 500 (≈ 1300 µM) | 100 (≈ 259 µM) | O=C(c1ccncc1)N1N=C(c2nc3ccccc3[nH]2)CC1c1ccc(F)cc1 (stereo not given)
500 (≈ 1210 µM) | 500 (≈ 1210 µM) | 100 (≈ 242 µM) | 500 (≈ 1210 µM) | 200 (≈ 485 µM) | 50 (≈ 121 µM) | 500 (≈ 1210 µM) | O=C(c1ccncc1)N1N=C(c2nc3ccccc3[nH]2)CC1c1ccc([N+](=O)[O-])cc1 (stereo not given)
100 (≈ 244 µM) | 1000 (≈ 2440 µM) | 100 (≈ 244 µM) | 250 (≈ 609 µM) | 25 (≈ 60.9 µM) | 250 (≈ 609 µM) | 250 (≈ 609 µM) | CN(C)c1ccc(C2CC(c3nc4ccccc4[nH]3)=NN2C(=O)c2ccncc2)cc1 (stereo not given)
500 (≈ 1360 µM) | 250 (≈ 680 µM) | 500 (≈ 1360 µM) | 250 (≈ 680 µM) | 200 (≈ 544 µM) | 250 (≈ 680 µM) | 100 (≈ 272 µM) | O=C(c1ccncc1)N1N=C(c2nc3ccccc3[nH]2)CC1c1ccccc1 (stereo not given)
500 (≈ 1240 µM) | 500 (≈ 1240 µM) | 1000 (≈ 2490 µM) | 250 (≈ 622 µM) | 1000 (≈ 2490 µM) | 100 (≈ 249 µM) | 500 (≈ 1240 µM) | O=C(c1ccncc1)N1N=C(c2nc3ccccc3[nH]2)CC1c1ccccc1Cl (stereo not given)
100 (≈ 261 µM) | 100 (≈ 261 µM) | 100 (≈ 261 µM) | 125 (≈ 326 µM) | 1000 (≈ 2610 µM) | 500 (≈ 1300 µM) | 100 (≈ 261 µM) | O=C(c1ccncc1)N1N=C(c2nc3ccccc3[nH]2)CC1c1ccccc1O (stereo not given)
25 (≈ 65.2 µM) | 500 (≈ 1300 µM) | 500 (≈ 1300 µM) | 100 (≈ 261 µM) | 100 (≈ 261 µM) | 100 (≈ 261 µM) | 50 (≈ 130 µM) | O=C(c1ccncc1)N1N=C(c2nc3ccccc3[nH]2)CC1c1cccc(O)c1 (stereo not given)
100 (≈ 242 µM) | 500 (≈ 1210 µM) | 100 (≈ 242 µM) | 500 (≈ 1210 µM) | 200 (≈ 485 µM) | 100 (≈ 242 µM) | 500 (≈ 1210 µM) | O=C(c1ccncc1)N1N=C(c2nc3ccccc3[nH]2)CC1c1cccc([N+](=O)[O-])c1 (stereo not given)
500 (≈ 1210 µM) | 500 (≈ 1210 µM) | 200 (≈ 484 µM) | 100 (≈ 242 µM) | 100 (≈ 242 µM) | 250 (≈ 605 µM) | 100 (≈ 242 µM) | COc1cc(C2CC(c3nc4ccccc4[nH]3)=NN2C(=O)c2ccncc2)ccc1O (stereo not given)
250 (≈ 652 µM) | 100 (≈ 261 µM) | 1000 (≈ 2610 µM) | 250 (≈ 652 µM) | 1000 (≈ 2610 µM) | 25 (≈ 65.2 µM) | 250 (≈ 652 µM) | O=C(c1ccncc1)N1N=C(c2nc3ccccc3[nH]2)CC1c1ccc(O)cc1 (stereo not given)
– | 500 (≈ 1420 µM) | 100 (≈ 283 µM) | – | 100 (≈ 283 µM) | – | – | COC1=CC(=O)C[C@@H](C)[C@]12Oc1c(Cl)c(OC)cc(OC)c1C2=O [GRISEOFULVIN]

SMILES | MIC (Pseudomonas aeruginosa) [µg/mL] | MIC (Candida albicans) [µg/mL] | MIC (Aspergillus clavatus) [µg/mL] | MIC (Staphylococcus aureus) [µg/mL] | MIC (Aspergillus niger) [µg/mL] | MIC (Escherichia coli) [µg/mL] | MIC (Streptococcus pyogenes) [µg/mL]
CC1(C)S[C@@H]2[C@H](NC(=O)[C@H](N)c3ccccc3)C(=O)N2[C@H]1C(=O)O [AMPICILLIN] | 100 (≈ 286 µM) | – | – | 250 (≈ 715 µM) | – | 100 (≈ 286 µM) | 100 (≈ 286 µM)
